This is an account of results in patent publication US8410065B2, “Macrolides and their use” (Basilea Pharmaceutica AG, priority 2008, dated 2013).

This assay deals with human PDE4. The assay is described as follows: PDE4 inhibition, in vitro enzymatic IMAP FP assay. The assay is classed as biochemical. Particulars: PDE4 partially purified from undifferentiated human monocytic cells (U-937); fluorescently labeled cAMP substrate; 90 minutes at room temperature; fluorescence polarization. As to the method:
PDE4 specifically hydrolyzes cAMP and releases the product AMP. The potency of PDE inhibition by said agents is determined in an in vitro enzymatic assay. The assay is commercially available (IMAP™ FP assay Molecular Devices Corp. (MDS)) and is optimized for the use of human PDE4. Fluorescently labeled cAMP is hydrolyzed by PDE4 and in a second step, binding of labeled product to a large binding partner allowed product detection by fluorescence polarization (FP) measurements.
PDE4 is partially purified from undifferentiated human monocytic cells (U-937) according to Thorpy et al. 1992 (J. Pharmacol. Exp. Ther. 263: 1195). […] In addition, PDE4 preparations are validated by inhibition studies with PDE4-specific and unspecific PDE inhibitors.
Stock solutions of test compounds are made in DMSO and diluted in assay buffer (10 mM Tris-HCl, 10 mM MgCl2, 0.1% BSA 0.05% NaN3, pH 7.2) to the desired concentrations. The solutions used in the assay contained test compound in assay buffer with 2% DMSO.
10 μl of substrate (at a concentration recommended by the manufacturer) are mixed with 5 μl of appropriately diluted PDE and 5 μl of test compound solution. 5 μl of reaction buffer with 2% DMSO are used for control reactions. […] After incubation for 90 minutes at room temperature, 60 μl of binding reagent are added as specified by the manufacturer. Binding is allowed to proceed for 30 minutes and fluorescence polarization is measured. Dose dependence of PDE inhibition is measured by assaying dilution series of test compounds in duplicates. IC50 values are determined from the measured activities by curve fitting.
Take `CC[C@H]1OC(=O)[C@H](C)[C@@H](O[C@H]2C[C@@](C)(OC)[C@@H](O)[C@H](C)O2)[C@H](C)[C@@H](O[C@@H]2O[C@H](C)C[C@H](N(C)C(C)=O)[C@H]2O)[C@](C)(OC)C[C@@H](C)C(=O)[C@H](C)[C@H]2[C@H](SCCN(Cc3c(Cl)cncc3Cl)c3ccc(OC)c(OC4CCCC4)c3)C(=O)O[C@@]21C` [Example 10]: half-maximal inhibition (IC50) required 31 nM.

Regarding `CC[C@H]1OC(=O)[C@H](C)[C@@H](O)[C@H](C)[C@@H](O[C@@H]2O[C@H](C)C=C[C@H]2O)[C@](C)(OC)C[C@@H](C)C(=O)[C@H](C)[C@H]2[C@H](SCCn3cnc4c(N)ncnc43)C(=O)O[C@@]21C` (stereo in doubt) [Example 1], the IC50 (usually the point on the concentration scale where inhibition reaches its midpoint) was 4800 nM. The value for `CC[C@H]1OC(=O)[C@H](C)[C@@H](O)[C@H](C)[C@@H](O[C@@H]2O[C@H](C)C[C@H](N(C)C)[C@H]2OC)[C@](C)(OC)C[C@@H](C)C(=O)[C@H](C)[C@H]2[C@H](SCCN(Cc3c(Cl)cncc3Cl)c3ccc(OC)c(OC4CCCC4)c3)C(=O)O[C@@]21C` (stereo in doubt) [Example 9] was 300 nM. With `CC[C@H]1OC(=O)[C@H](C)[C@@H](O)[C@H](C)[C@@H](O[C@@H]2O[C@H](C)C[C@@H](N3CCOCC3)[C@@H]2N(C)C)[C@](C)(OC)C[C@@H](C)C(=O)[C@H](C)[C@H]2[C@H](SCCN(Cc3c(Cl)cncc3Cl)c3ccc(OC)c(OC4CCCC4)c3)C(=O)O[C@@]21C` (stereo in doubt) [Example 12] the figure was 220 nM. In turn, `CC[C@H]1OC(=O)[C@H](C)[C@@H](O)[C@H](C)[C@@H](O[C@@H]2O[C@H](C)C[C@@H](OC)[C@@H]2N(C)C)[C@](C)(OC)C[C@@H](C)C(=O)[C@H](C)[C@H]2[C@H](SCCN(Cc3c(Cl)cncc3Cl)c3ccc(OC)c(OC4CCCC4)c3)C(=O)O[C@@]21C` (stereo in doubt) [Example 8] returned an IC50 of 220 nM. The value for `CC[C@H]1OC(=O)[C@H](C)[C@@H](O[C@H]2C[C@@](C)(OC)[C@@H](O)[C@H](C)O2)[C@H](C)[C@@H](O[C@@H]2O[C@H](C)C[C@@H](OC)[C@@H]2N(C)C)[C@](C)(OC)C[C@@H](C)C(=O)[C@H](C)[C@H]2[C@H](SCCn3cnc4c(N)ncc(C(=O)Nc5c(Cl)cncc5Cl)c43)C(=O)O[C@@]21C` (stereo in doubt) [Example 5] was 110 nM; that for `CC[C@H]1OC(=O)[C@H](C)[C@@H](O[C@H]2C[C@@](C)(OC)[C@@H](O)[C@H](C)O2)[C@H](C)[C@@H](O[C@@H]2O[C@H](C)C[C@H](N(C)C(C)=O)[C@H]2O)[C@](C)(OC)C[C@@H](C)C(=O)[C@H](C)[C@H]2[C@H](SCCOc3cc(C(=O)Nc4c(Cl)cncc4Cl)ccc3OC)C(=O)O[C@@]21C` (stereo in doubt) [Example 14] was 2.7 nM.

As for `CC[C@H]1OC(=O)[C@H](C)[C@@H](O[C@H]2C[C@@](C)(OC)[C@@H](O)[C@H](C)O2)[C@H](C)[C@@H](O[C@@H]2O[C@H](C)C[C@H](N(C)CC(C)C)[C@H]2O)[C@](C)(OC)C[C@@H](C)C(=O)[C@H](C)[C@H]2[C@H](SCCN(C(=O)c3ccncc3)c3ccc(OC)c(OC4CCCC4)c3)C(=O)O[C@@]21C` (stereo in doubt) [Example 3], half-maximal inhibition (IC50) was put at 13600 nM. With `CC[C@H]1OC(=O)[C@H](C)[C@@H](O[C@H]2C[C@@](C)(OC)[C@@H](O)[C@H](C)O2)[C@H](C)[C@@H](O[C@@H]2O[C@H](C)C[C@@H](OC)[C@@H]2N(C)C)[C@](C)(OC)C[C@@H](C)C(=O)[C@H](C)[C@H]2[C@H](SCCN(Cc3c(Cl)cncc3Cl)c3ccc(OC)c(OC4CCCC4)c3)C(=O)O[C@@]21C` (stereo in doubt) [Example 7] the figure was 140 nM. Molecule `CC[C@H]1OC(=O)[C@H](C)[C@@H](O[C@H]2C[C@@](C)(OC)[C@@H](O)[C@H](C)O2)[C@H](C)[C@@H](O[C@@H]2O[C@H](C)C[C@H](N(C)C(=O)N3CCOCC3)[C@H]2O)[C@](C)(OC)C[C@@H](C)C(=O)[C@H](C)[C@H]2[C@H](SCCCOc3cc(C(=O)Nc4c(Cl)cncc4Cl)ccc3OC)C(=O)O[C@@]21C` (stereo in doubt) [Example 16] showed an IC50 of 220 nM. With `CC[C@H]1OC(=O)[C@H](C)[C@@H](O[C@H]2C[C@@](C)(OC)[C@@H](O)[C@H](C)O2)[C@H](C)[C@@H](O[C@@H]2O[C@H](C)C[C@H](N(C)CC(C)C)[C@H]2O)[C@](C)(OC)C[C@@H](C)C(=O)[C@H](C)[C@H]2[C@H](SCCn3cnc4c(N)ncnc43)C(=O)O[C@@]21C` (stereo in doubt) [Example 2] the figure was 2800 nM; with `CC[C@H]1OC(=O)[C@H](C)[C@@H](O[C@H]2C[C@@](C)(OC)[C@@H](O)[C@H](C)O2)[C@H](C)[C@@H](O[C@@H]2O[C@H](C)C[C@@H](OC)[C@@H]2N(C)C)[C@](C)(OC)C[C@@H](C)C(=O)[C@H](C)[C@H]2[C@H](SCCN(Cc3ccncc3)c3ccc(OC)c(OC4CCCC4)c3)C(=O)O[C@@]21C` (stereo in doubt) [Example 6], 1400 nM.
